Laboratory results as given in patent US20140186263A1, “MALEIMIDE-FUNC[…] NANOPARTICLES” (THE ROYAL INSTITUTION FOR THE ADVANCEMENT OF …, priority 2011, published 2014).

Test system: blood brain barrier (BBB); brain, cerebellum
Experiment: Biodistribution of [18F]-AuNP in rats by small animal micro-PET
Assay type: in vivo, SD (Sprague-Dawley) rats
Conditions: healthy rats, intravenous injection, micro-PET brain scan
Description: To evaluate the bio-distribution of the AuNPs, [^18F] SiFA-AuNP (12 MBq) were injected into healthy rats (n=3) and evaluated by micro-PET. Representative body and brain scan images of a micro-PET scan following intravenous injection of a solution of [^18F]-SiFA-AuNP are illustrated in FIG. 8. Radioactivity was found in the kidney, liver and spleen.
The time-activity curves obtained from the PET images depicting the radioactivity uptake in the cerebellum and the brain (n=3), using bone radioactivity as a region of reference, are illustrated in FIG. 9 These curves illustrate that AuNPs start to accumulate in the cerebellum and brain at 25-120 min. Ex vivo biodistribution studies were also carried out to confirm the bio-distribution data of [^18F]-SiFA-AuNP in different organs 2 h following injection as obtained by micro-PET. The biodistribution data is illustrated in FIG. 10 and is expressed as the percentage of injected dose for each gram of tissue (% ID/g). […]
Biodistribution of [^18F]-AuNP in Rats by small animal PET: SD (Sprague-Dawley) Rats for in vivo PET studies were housed in a 12 h light/dark cycle at 21° C. with access to food and water ad libitum. […] Respiration rate, heart rate and body temperature were monitored throughout the scan (Biopac sytems MP150, Goleta, Calif., USA). […] The PET images were analyzed using ASIPRO software (Concorde Microsystems). […]

CC(C)(C)[Si](F)(c1ccc(S)cc1)C(C)(C)C [[^18F]-SiFA-SH, ^18F-labeled 4-(di-tert-butylfluorosilanyl)benzenethiol]
crossing of the blood brain barrier (BBB): does not cross the BBB
